Two compounds from patent US9006262B2 (priority 2011, dated 2015) can be followed below.

For this assay, the system named is C57BL/6 mouse line transplanted with B16-F10 melanoma cells. The settings on record: in vivo.

Regarding `CN(C(=O)/C=C/c1ccoc1)[C@@H]1CC[C@@]2(O)[C@H]3Cc4ccc(O)c5c4[C@@]2(CCN3CC2CC2)[C@H]1O5.Cl` [Compound 1, (−)-17-(cyclopropylmethyl)-3,14β-dihydroxy-4,5α-epoxy-6β-[N-methyl-trans-3-(3-furyl)acrylamido]morphinan hydrochloride], the “life-prolonging effect (survival rate / lifetime)” value is “statistically significant life-prolonging effect” and the “suppressive effect on body weight loss (percent change in body weight)” value is recorded as “statistically significant suppressive effect on body weight loss”.
The corresponding values for `CN1CC[C@]23c4c5ccc(O)c4O[C@H]2[C@@H](O)C=C[C@H]3[C@H]1C5` [morphine, Morphine] are “tendency to reduce the lifetime” and “tendency of further body weight loss”.
